Assay results taken from patent US12629406B2, “Alterations in endothelin receptors following hemorrhage and resuscitation by centhaquin” (MIDWESTERN UNIVERSITY, priority 2018, dated 2026).
Where two headings read alike, the source gives them in different places.

Columns and labels:
IL-10 = test: Plasma IL-10 in hemorrhaged rats (ELISA); conditions: rat, in vivo
Procedure: (§1) Induction of Hemorrhagic Shock. Hemorrhage was induced by withdrawing blood from the femoral artery at a rate of approximately 0.5 to 1 mL/min until a MAP of 35 mmHg was reached. This MAP was maintained for 30 min by further withdrawal of blood, if necessary. The hemorrhagic shock model used in the present study is a well-established rodent model of manageable pressure hemorrhage (Buehler et al. 2000; Gulati et al. 1997a; Gulati and Sen 1998). The volume of blood loss was about approximately 8.0 ml in each rat and was similar in various groups, amounting to approximately 40% of the total blood. Measured hematocrit levels were similar in various groups. The duration of blood withdrawal was approximately 15 minutes.
Experimental design. […] The blood samples, for biochemical estimations, were collected at 30 minutes of resuscitation and cardiovascular parameters were monitored till 60 minutes after which the animal was sacrificed. […]

[1] = Rat hemorrhagic shock, normal saline resuscitation: blood gases, hematocrit, lactate, MAP; type: in vivo
Procedure: Animal Studies. Male Sprague-Dawley rats (340 to 380 g) (Envigo, Indianapolis, IN) were housed for at least 4 days in a room with controlled temperature (23±1° C.), humidity (50±10%) and light (6:00 A.M. to 6:00 P.M.) before being used. Food and water were made available continuously. Animal care and use for experimental procedures were approved by the Institutional Animal Care and Use Committee of the Midwestern University. All anesthetic and surgical procedures were in compliance with the guidelines established by the Animal Care Committee.
Determination of cardiovascular response. The animals were anesthetized with urethane dissolved in isotonic saline. Urethane was administered in a dose of 1.5 g per kg body weight via intraperitoneal injection. Urethane was selected as an anesthetic agent, because it produces long lasting (8-10 hours) anesthesia with minimal cardiovascular and respiratory system depression. It produces a level of surgical anesthesia characterized by preservation of cardiovascular reflexes (Maggi and Meli 1986). Briefly, anaesthetized rats were immobilized on a surgical board equipped with controlled heating pad. Blood PO2, Pco2 and pH, were maintained using a tracheotomy cannula connected to a rodent ventilator (Model 683, Harvard Apparatus Inc., Holliston, MA). MAP and HR were measured by cannulating the left femoral artery with pressure catheter SPR-320 (Millar Instruments), connected to the ML221 bridge amplifier (AD Instruments) through AEC-10C connector and the signals were acquired (1000 S^−1) using PowerLab 16/30 data acquisition system (Gulati et al. 2012; Pacher et al. 2008). A Perimed laser Doppler flow probe was placed in the renal medulla to measure blood perfusion and data was captured on PowerLab 16/30 data acquisition system. The left femoral vein was cannulated using PE 50 tubing (Clay Adams, Parsipanny, NJ) and secured for resuscitation.
Determination of arterial blood gases and base deficit. Baseline arterial blood pH, PO2, Pco2, Na^+, K^+ and lactate were monitored prior to induction of shock, 30 minutes after induction of shock, and 30 and 60 minutes following vehicle or centhaquin resuscitation. Blood samples (0.15 ml) were drawn from the arterial cannula using blood gas sampling syringes (Innovative Medical Technologies, Inc. Leawood, KS) and analyzed using a pHOx Ultra analyzer (Nova Biomedical Corporation, Waltham, MA). The base deficit was calculated using the formula (Davis et al. 1998; Paladino et al. 2008): SBD=0.9287×[HCO3^−−24.4+14.83×(pH-7.4)]
as §1, with “30 minutes” for “30 min”, “al. 1997;” for “al. 1997a;”, “groups. […]” for “groups. The duration of blood withdrawal was approximately 15 minutes.”
Experimental design. […] Additional experiments were also carried out where the amount of norepinephrine (a very commonly used vasopressor during resuscitation) required to maintain MAP at 70 mmHg in normal saline (NS) or centhaquin (0.01 mg/kg) treated rats (volume equal to blood loss) was determined. […]

[2] = system: isolated, perfused rabbit heart; conditions: cited from earlier work
[3] = cited from earlier work
[4] = cited from earlier work; remark: listed apart in the source

With `Cc1cccc(N2CCN(CCc3ccc4ccccc4n3)CC2)c1` [centhaquin, 2-[2-(4-(3-methyphenyl)-1-piperazinyl)]ethyl-quinoline] the “plasma IL-10, hemorrhagic shock versus resuscitation with hypertonic saline or centhaquin” value (IL-10) was “no statistically significant difference”, the “effect on blood pH of hemorrhaged rats” value ([1]; centhaquin 0.01 and 0.10 mg/kg in normal saline) was “significantly prevented the reduction of pH” and the MAP post resuscitation ([1]; centhaquin 0.01 and 0.10 mg/kg, p<0.01) was “significant increase”. The “blood lactate levels compared to the saline group” value ([1]; normal saline model) was “decrease”, the “change in hematocrit after treatment” value ([1]; normal saline model) was “no change” and the “effect on hemorrhage-induced decrease in pCO2 and increase in pO2” value ([1]; resuscitation with centhaquin in normal saline) was “not affected”. The “inotropic effect, ventricular contractions” value [2] was “positive inotropic effect”, the “survival compared to Lactated Ringer's” value ([3]; 0.015 mg/kg in the fluid resuscitation phase) was “significantly better survival” and the “cardiac output (CO)” value ([3]; 0.015 mg/kg) was “augments CO”. The “systemic vascular resistance (SVR)” value ([3]; 0.015 mg/kg) was “reduces systemic vascular resistance”, the “volume of fluids for resuscitation” value ([3]; 0.015 mg/kg) was “requires smaller volume of fluids” and the “survival of hemorrhaged rats” value ([4]; administered in one-fifth the volume of blood loss) was “improved the survival”. The blood lactate ([4]; rat model of hemorrhagic shock) was “decreased blood lactate”, the “cardiac output (CO)” value ([4]; rat model of hemorrhagic shock) was “significantly improved CO” and the survival ([4]; rat model of hemorrhagic shock) was “improved survival”.
